Measurements from patent US6603046B1, “Bis-aromatic a,β-unsaturated ketones” (Lica Pharmaceuticals A/S, priority 1992, dated 2003).
In brackets after ≈: the same amount, converted by molar mass. Like-named read-outs stand apart in the source and are kept apart here.

How the values were obtained:
[1] = tested on: L. donovani promastigotes; test: In vitro growth of L. donovani promastigotes, 3H-thymidine uptake (Example 4); type: cell-based; details: Leishmania donovani; for inhibition at 1 µg/mL: 1 μg/ml; for inhibition at 2 µg/mL: 2 μg/ml; for inhibition at 5 µg/mL: 5 μg/ml; for inhibition at 10 µg/mL: 10 μg/ml; for inhibition at 20 µg/mL: 20 μg/ml
L. major promastigotes = L. major promastigotes from 4-days cultures, 3H-thymidine uptake (Examples 5, 14); type: cell-based, Leishmania major; details: Leishmania major, Table 14.1, read-out: percentage inhibition of promastigotes (upper figure)
Procedure, shortened: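 Promastigotes harvested on day 4 of culture were exposed to compound, then pulsed with 100 μC 3H-thymidine for a further 18 h. Cells were collected on filter paper, washed, and incorporated radioactivity counted by scintillation.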

L. major in U937 cells = test: Intracellular parasite killing, parasite survival index (PSI); type: cell-based, Leishmania major; details: 1 μg/ml
Experimental: Killing was quantified by a modification of a technique described by Berman et al.
Briefly, 3 days after infection, microtiter well cultures were rinsed once with medium, exposed to 100 μl of prewarmed (37° C.) 0.01% sodium dodecyl-sulfate (SDS) in medium RPMI 1640, and returned to 34° C. for 15 min. By this procedure, macrophages were lysed, according to microscopic observation, and amastigotes were released. 100 μl of medium RPMI 1640 with 20% HFCS were added to each well without removal of the lysing solution. The plates were then transferred to a 26° C. incubator, and amastigotes were left to transform to promastigotes. After 48 h, parasite growth was recorded by adding 1 μCi of ^3H-thymidine (New England Nuclear Corp., Boston, Mass.) to each well. The parasites were harvested 24 h later on glass fiber filters with a harvesting machine (Skatron, Lierbyen, Norway), and ^3H-thymidine incorporation was measured in a liquid scintillation counter (Tricarb; Packard Instrument Co., Inc., Rockville, Md.). The parasite survival index (PSI) was determined. This index is the mean 3H-thymidine incorporation (cpm) in treated infected cells as compared with the untreated infected cells. [formula]

P. falciparum = P. falciparum growth in vitro (Table 14.1, strain not stated); type: cell-based; details: Plasmodium falciparum, read-out: inhibition of malaria parasites (middle figure) (converted)
Procedure, shortened: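 Parasitized erythrocytes (~1% parasitemia) in RPMI with graded compound concentrations, cultured 48 h. 3H-hypoxanthine added for the final 24 h. Growth measured as 3H-hypoxanthine incorporation into parasite DNA by liquid scintillation.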

L. micdadei = test: microbe, parasite or virus in culture; type: cell-based, Legionella micdadei
Streptococcus pneumonia = test: MIC, macrodilution (Example 17); type: cell-based; details: Streptococcus pneumoniae; 1 strain
Corynebacterium species = test: microbe, parasite or virus in culture; type: cell-based
Bacillus subtilis = test: MIC, macrodilution (Example 17); type: cell-based; details: 1 strain
M. tuberculosis = test: Radiometric MIC/MBC (Example 19); type: cell-based
Experimental: 63 strains of mycobacteria were used in this study. The bacteria were grown in Dubos broth media before susceptibility testing. Licochalcone A was isolated as described in Example 1. Licochalcone A was dissolved in dimethyl sulfoxide (DMSO) and diluted in distilled water to the desired concentration.
Susceptibility testing was performed radiometrically by using a BECTEC 460-TB apparatus (Becton Dickinson) in a confined atmosphere (5% CO2). […] The growth was expressed as a numerical value called the growth index (GI) which ranged from 1 to 999. The 7H12 vials were inoculated with 0.1 ml of an appropriately diluted Dubos broth culture to give a final inoculum of about 5×10^4 colony-forming units (CFU) per ml together with 0.1 ml of different concentrations of licochalcone A. The final concentrations of licochalcone A tested ranged from 1.25 μg/ml to 80 μg/ml. A vial without licochalcone A, but with an inoculum diluted 1:100, was included as a control. The final inoculum was determinate by culturing 0.1 ml from the control vial onto one Lowenstein-Jensen slant. The vials were incubated under stationary conditions at 35° C. and growth was monitored by daily GI determination for 7 days. At day 7, 0.1 ml from each vial with a GI reading <30 was cultured onto one Lowenstein-Jensen slant. Colony counts were enumerated after incubation at 35° C. for 3 weeks.

M. avium = test: Radiometric MIC (Example 19); type: cell-based
[2] = Reaction with glutathione, HPLC (Example 26); type: physicochemical; details: acetonitrile-phosphate buffer (1:3), 7 days, ambient temperature
Experimental: Formation of glutathione conjugates of licochalcone A. A solution of 1.5 mg of licochalcone A and 100 mg of glutathione in acetonitrile-0.13 M aqueous potassium phosphate buffer solution pH 75 (1:3) was left for 7 days at ambient temperature protected from light.

[3] = tested on: human monocytes/macrophages; test: Electron microscopy of human monocytes/macrophages with and without ingested L. major (Example 12); details: for ultrastructure of macrophage: macrophage alone
[4] = read-out: percentage inhibition of 3H-thymidine uptake (mean ± SEM), 3-day culture
[5] = read-out: percentage inhibition of 3H-thymidine uptake (mean ± SEM), 6-day culture

With C=CC(C)(C)c1cc(/C=C/C(=O)c2ccc(O)cc2)c(OC)cc1O [Licochalcone A, licochalcone A] the inhibition at 1 µg/mL [1, 4] was 15.2 ± 14.5%, the inhibition at 2 µg/mL [1, 4] was 23.5 ± 16.4% and the inhibition at 5 µg/mL [1, 4] was 53.7 ± 14%. For the same molecule, the inhibition at 10 µg/mL [1, 4] was 81.5 ± 8%, the inhibition at 20 µg/mL [1, 4] was 96.7 ± 0.8% and the inhibition at 1 µg/mL [1, 5] was 30.4 ± 23.8%. For the same molecule, the inhibition at 2 µg/mL [1, 5] was 42.2 ± 16.6%, the inhibition at 5 µg/mL [1, 5] was 70.1 ± 12.4% and the inhibition at 10 µg/mL [1, 5] was 91.9 ± 3.1%. For the same molecule, the inhibition at 20 µg/mL [1, 5] was 98.3 ± 0.8%, the inhibition at 0.5 µg/mL (L. major promastigotes; 0.5 μg/ml) was 12% and the inhibition at 1 µg/mL (L. major promastigotes; 1 μg/ml) was 25%. For the same molecule, the inhibition at 5 µg/mL (L. major promastigotes; 5 μg/ml) was 64%, the inhibition at 10 µg/mL (L. major promastigotes; 10 μg/ml) was 92% and the PSI index (L. major in U937 cells) was “about 5%”. For the same molecule, the inhibition at 0.5 µg/mL (P. falciparum; 0.5 μg/ml) was 39%, the inhibition at 1 µg/mL (P. falciparum; 1 μg/ml) was 69% and the inhibition at 5 µg/mL (P. falciparum; 5 μg/ml) was 98%. For the same molecule, the inhibition at 10 µg/mL (P. falciparum; 10 μg/ml) was 98%, the MIC (L. micdadei; Fluoribacter gormanii, read-out: MIC-values, Legionella gormanii and the 4 L. micdadei isolates) was 15 to 500 µg/mL (≈ 44.3 to 1480 µM) and the MIC (L. micdadei; Legionella micdadei, L. micdadei (Bari)) was 60 µg/mL (≈ 177 µM). It also gave an MIC (L. micdadei; Legionella micdadei, L. micdadei (Detroit)) of 15 µg/mL (≈ 44.3 µM), an MIC (L. micdadei; Legionella micdadei, L. micdadei (F 1433)) of 60 µg/mL (≈ 177 µM) and an MIC (L. micdadei; Legionella micdadei, L. micdadei, 1 strain) of 500 µg/mL (≈ 1480 µM). The MIC (Streptococcus pneumonia) was 4 µg/mL (≈ 11.8 µM), the MIC (Corynebacterium species) was 0.3 to 4 µg/mL (≈ 0.887 to 11.8 µM) and the MIC (Corynebacterium species; read-out: MIC of one very sensitive corynebacterium species) was 0.3 µg/mL. For the same molecule, the MIC (Bacillus subtilis) was 4 µg/mL (≈ 11.8 µM), the “meanMIC (second line)” value (M. tuberculosis; n = 2) was “meanMIC = 40 μg/ml (n = 2)” and the meanMIC (M. tuberculosis; n = 19) was “meanMIC = 7.1 μg/ml”. For the same molecule, the rangeMIC (M. tuberculosis; n = 19) was “rangeMIC = 5-10 μg/ml (n = 19)”, the meanMIC (M. avium; AIDS patients, n=4) was greater than 80 µg/mL and the MIC (M. avium; Mycobacterium avium, read-out: MIC, all M. avium/intracellular strains) was no less than 20 µg/mL. The meanMIC (M. avium; non AIDS patients, n=7) was greater than 80 µg/mL, the reaction with glutathione [2] was “decreased amounts of licochalcone A and appearance of two new peaks” and the “intracellular amastigotes, electron microscopy” value ([3]; macrophage + L. major, 10 μg/ml) was “Most of the intracellular amastigotes were now killed”. For the same molecule, the ultrastructure of macrophage ([3]; 5 μg/ml) was “No changes compared to the control culture” and the ultrastructure of macrophage ([3]; 10 μg/ml) was “No changes compared to the control culture”.
